Where no end group is shown, it is not given here.
Legend:
[1] = tested on: Candida albicans GDH18 strain; test: Antimicrobial activity (CFU count, percentage of living cells) against Candida albicans GDH18; assay type: cell-based; conditions: 37° C., 90 minutes, 1 mM phosphate buffer
Source text: As the Candida, cariogenic bacteria and periodontal disease bacteria, the Candida albicans GDH18 strain, Streptococcus sobrinus B-13 strain, Streptococcus mutans NCTC10449 strain, Streptococcus mutans Ingbritt strain, Porphyromonas gingivalis Hudoi001 strain and Aggregatibacter actinomycetemcomitans Hudoe001 strain were used. The test strains were provided from Faculty of Dentistry, Hiroshima University, Japan, and Hiroshima University Dental Hospital.
(§1) The Candida albicans GDH18 strain was precultured using SD medium (Difco) at 37° C. for 24 hours under aerobic conditions. The Streptococcus sobrinus B-13 strain, Streptococcus mutans NCTC10449 strain and Streptococcus mutans Ingbritt strain were precultured using TSB medium (Difco) supplemented with 5% yeast extract (Difco) at 37° C. for 24 hours under aerobic conditions. The Porphyromonas gingivalis Hudoi001 strain and Aggregatibacter actinomycetemcomitans Hudoe001 strain were precultured using BHI medium (Difco) supplemented with hemin (5 mg/L) and vitamin K3 (1 mg/L) at 37° C. for 96 hours under anaerobic conditions with Anaero Pack System (Mitsubishi Gas Chemical Company, Inc.).
(§2) After the culture, the cells of the Candida, cariogenic bacteria and periodontal disease bacteria were collected by centrifugation at 1000×g, and washed twice with 1 mM phosphate buffer (pH 6.8). The cells were then suspended such that the final concentration was 1×10^8 cfu/ml or 1×10^7 cells/m. For suspension of the Streptococcus strains, ultrasonic treatment was also carried out.
(§3) Evaluation of the antimicrobial activity was carried out by the method by Edgerton and others (1998) with some modifications. With 20 mL of 1 mM phosphate buffer containing 0 to 25 μM Kog1 or Kog2 synthesized in Example 1, 20 μl of the suspension of the Candida albicans GDH18 strain cultured and prepared by the method described in the above Preparation Example was mixed, and the resulting mixture was incubated at 37° C. for 90 minutes with shaking. As a control, 20 ml of 1 mM phosphate buffer alone was used. The reaction was stopped by addition of 360 ml of YNB medium (Difco), and the number of colonies formed (colony forming units; CFUs) was counted together with the number of colonies in the control, to determine the percentage of living bacterial cells. That is, the equation of: (CFUs of suspension containing Kog1 or Kog2/CFU ml^−1 of control suspension)×100 was used to calculate the percentage.

[2] = Measurement of the isoelectric point of the synthesized peptides; assay type: physicochemical; conditions: synthesized peptide
Source text: Among antimicrobial peptides, hBD2 (human P-defensin-2 (see Eur J., 2002, Oral Sci. (109), 121-124)) is well known as a basic antimicrobial peptide, and has an isoelectric point of about 10. However, the isoelectric points of Kog1 and Kog2 of the embodiment 2 were higher than the isoelectric point of hBD2, and more similar to the isoelectric points of antimicrobial peptides derived from mammals. Thus, Kog1 and Kog2 were confirmed to have less cytotoxicity.

[3] = tested on: Streptococcus mutans NCTC10449 strain; test: Antimicrobial activity against Streptococcus mutans NCTC10449; assay type: cell-based; conditions: 0 to 100 μM, FIG. 4
[4] = tested on: Porphyromonas gingivalis Hudoi001 strain; test: Antimicrobial activity against Porphyromonas gingivalis Hudoi001; assay type: cell-based; conditions: not shown in the figures
Description: as §1, §2
That is, it is assumed that, in Examples described in Patent Literature 1, the Lactobacillus rhamnosus KO3 strain expressed Kog1 and Kog2, and the expressed Kog1 and Kog2 exerted antimicrobial activity against the Porphyromonas gingivalis Hudoi001 strain. […]

[5] = tested on: Streptococcus sobrinus B-13 strain; test: Antimicrobial activity against Streptococcus sobrinus B-13; assay type: cell-based; conditions: tested 0 to 100 μM
Description: [The procedure below names another organism; the source lists this organism under the same test.] as §1, §2
as §3, with “percentage. […]” for “percentage.”

[6] = tested on: Porphyromonas gingivalis LPS (P.g-LPS) on RAW264.7 macrophage-like cells, TNF-α; test: LPS inactivation: TNF-α secretion of RAW264.7 cells (ELISA); assay type: cell-based; conditions: 100 ng/ml P.g-LPS preincubated 2 hours with 5, 10, 20 μM Kog1; as amount added increased
Description: (§4) As a medium, RPMI 1640 medium supplemented with 10% FBS (Fetal Bovine Serum) (Biological industries, Haemek, Israel), 1% antibiotic and 1% L-glutamine was used. In each well of a 24-well plate, 400 μl of the medium was placed, and 100,000 cells/well of mouse-derived RAW264.7 macrophage-like cells were inoculated thereto.
(§5) The bacteriocin Kog1 or Kog2, which was the same as in Example 1, was incubated in an Eppendorf tube under each of the following 4 conditions together with Porphyromonas gingivalis LPS (manufactured by InvivoGen) (hereinafter referred to as P.g-LPS) and the same medium as described above, at 37° C. under a gas phase of 5% CO2 for 2 hours: (1) 100 ng/ml P.g-LPS positive control; (2) 100 ng/ml P.g-LPS+5 μM Kog1 or Kog2; (3) 100 ng/ml P.g-LPS+10 μM Kog1 or Kog2; (4) 100 ng/ml P.g-LPS+20 μM Kog1 or Kog2.
(§6) The above-described medium placed in each well of the 24-well plate was removed using a pipetteman, and the medium in the Eppendorf tube for each of the 4 conditions described above was placed in the plate, followed by culturing the cells in the well plate at 37° C. under a gas phase of 5% CO2 for 12 hours. Thereafter, the culture supernatant was collected, and the amount of a chemokine ccl2 or the amount of a cytokine TNF-α secreted into the medium was quantified by the ELISA method by measuring the absorbance at 450 nm using a microplate reader. Since both ccl2 and TNF-α are involved in formation of inflammation, analysis of the relationship between the endotoxin LPS and the bacteriocins Kog1 and Kog2 is possible.

[7] = tested on: Porphyromonas gingivalis LPS (P.g-LPS) on RAW264.7 macrophage-like cells, ccl2; test: LPS inactivation: ccl2 secretion of RAW264.7 cells (ELISA); assay type: cell-based, mouse; conditions: 100 ng/ml P.g-LPS preincubated 2 hours with 5, 10, 20 μM Kog1; as amount added increased
Description: as §4, §5, §6

[8] = tested on: Candida albicans MYA274 strain; test: Boiling experiment: antimicrobial activity (ATP) against Candida albicans MYA274; assay type: cell-based; conditions: concluded from supernatant boiled at 100° C. for 20 minutes; peptides not directly used
Description: In Example 9, antimicrobial activity against the Candida albicans MYA274 strain was investigated. The Candida albicans MYA274 strain was precultured in Sabouraud dextrose broth (Difco) at 37° C. for 24 hours, and then washed twice with MQ water, followed by being prepared such that OD600 is 0.3 (1.0×10^7 cells/ml).
In Example 9, the bacteriocin Kog1 or Kog2, or the Lactobacillus rhamnosus KO1 strain or KO3 strain, was not directly used. Instead, a lactic acid bacterium medium containing the Lactobacillus rhamnosus KO3 strain, 8020 yogurt (liquid type), was used in the experiment More specifically, the 8020 yogurt (liquid type) was prepared by adding the Lactobacillus rhamnosus KO3 strain at a concentration of 1% and YF-L811 starter at a concentration of 1% to the 15% skim milk+3% glucose medium, and then performing culture at 35° C. for 2 days.
Such 8020 yogurt (liquid type) was centrifuged to obtain a supernatant from which the lactic acid bacterium was removed (hereinafter referred to as Supernatant B). In the experiment, Supernatant B and a sample prepared by boiling Supernatant B at 100° C. for 20 minutes (hereinafter referred to as Supernatant Boil) were used. […]
In order to study changes in the antimicrobial activity by boiling, the following 3 kinds of samples were placed in a 24-well plate, and the value of ATP (pmol/L) after 24 hours of incubation at 37° C. was measured. […]

[9] = tested on: Aggregatibacter actinomycetemcomitans Hudoe001 strain; test: Antimicrobial activity against Aggregatibacter actinomycetemcomitans Hudoe001; assay type: cell-based; conditions: tested 0 to 50 μM
[10] = tested on: Streptococcus mutans Ingbritt strain; test: Antimicrobial activity against Streptococcus mutans Ingbritt; assay type: cell-based; conditions: 0 to 100 μM, FIG. 5
[11] = well known basic antimicrobial peptide, literature; cited from earlier work

Compound: C[C@@H]1[C@H](O)[C@@H](C)/C=C/C=C/C=C/C=C/C=C/C=C/C=C/[C@H](O[C@@H]2O[C@H](C)[C@@H](O)[C@H](N)[C@@H]2O)C[C@@H]2O[C@](O)(C[C@@H](O)C[C@@H](O)[C@H](O)CC[C@@H](O)C[C@@H](O)CC(=O)O[C@H]1C)C[C@H](O)[C@H]2C(=O)O [amphotericin B]
- peptide concentration at which 100% of the strain was killed [1]: 5 µM

Compound: JH8194: antimicrobial peptide of JP 3472821 B (amino acid sequence shown in SEQ ID NO: 7) (KRLFRRWQWRMKKY; Antimicrobial peptide)
- peptide concentration at which 100% of the strain was killed [1]: 2.5 µM

Compound: Kog1: peptide having the amino acid sequence shown in SEQ ID NO: 1, bacteriocin of Lactobacillus rhamnosus, synthesized by the tea-bag method (MAKARPSRPRPLTLRSLTAPAHAHKKWASRWILSMRLARVFGIEKPHG; listed as Lactobacillus rhamnosus)
- isoelectric point (pl) [2]: 12.90
- peptide concentration at which 100% of the strain was killed [1]: 0.39 µM
- antimicrobial activity compared to the other antimicrobial peptides (hBD2, lysozyme) [3]: capable of killing a larger amount of Streptococcus mutans even at relatively low peptide concentration
- antimicrobial activity [4]: capable of exerting antimicrobial activity
- peptide concentration at which 100% of the strain was killed [5]: 1.56 µM
- amount of the cytokine TNF-α secreted [6]: decreased
- amount of the chemokine ccl2 secreted [7]: decreased
- heat resistance (antimicrobial activity after heating) [8]: still maintain antimicrobial activity after heating
- peptide concentration at which 100% of the strain was killed [9]: 3.13 µM
- antimicrobial activity compared to the other antimicrobial peptides (hBD2, lysozyme) [10]: capable of killing a larger amount of Streptococcus mutans even at relatively low peptide concentration

Compound: hBD2: human β-defensin-2, well known basic antimicrobial peptide (GIGDPVTCLKSGAICHPVFCPRRYKQIGTCGLPGTKCCKKP; ends and bridges not checked; cysteine pairing not given here; UniProt O15263 24-64, looked up) [reference compound]
- peptide concentration at which 100% of the strain was killed [5]: 3.125 µM
- isoelectric point [11]: about 10

Compound: histatin 5: antimicrobial peptide derived from human saliva (amino acid sequence shown in SEQ ID NO: 6) (DSHEKRHHGYKRKFHEKHHSHRGY; Antimicrobial peptide)
- peptide concentration at which 100% of the strain was killed [1]: 100 µM

Compound: lactoferricin B: antimicrobial peptide derived from milk (amino acid sequence shown in SEQ ID NO: 5) (FKCRRWQWRMKKLGAPSITCVRRAF; Antimicrobial peptide)
- peptide concentration at which 100% of the strain was killed [1]: 5 µM

Reference: US9314498B2, “Bacteriocin derived from Lactobacillus rhamnosus” (priority 2011, dated 2016)
